Experimental data taken from patent publication US20250129070A1, “BIFUNCTIONAL ANDROGEN RECEPTOR COMPOUNDS” (priority 2023, published 2025).

Experiments:
[1] = test system: AR / CBP ternary complex; assay: Ternary complex formation assay (sandwich ELISA, AR capture / CBP detection) in VCaP cell lysates; format: cell-based; conditions: 1.5 hours treatment, sandwich ELISA (AR capture, CBP or p300 detection)
Summary of the method: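 VCaP cells (50K/well, 5% charcoal-stripped FBS, ≥3 days) treated with bifunctional compound for 1.5 h, then lysed 30 min at 4 °C. AR captured on anti-AR (AR 441) plates; bound CBP or p300 detected by rabbit mAb plus HRP secondary. QuantaRed chemifluorescence read at ex 570/em 585, immediately and at 5 and 15 min.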

[2] = test system: VCaP cells; assay: VCaP growth inhibition assay; format: cell-based; conditions: 30 pM R1881, 9 days, CTG
Summary of the method: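 VCaP cells in phenol red-free DMEM/5% CSS, pre-incubated 72 h, then stimulated with R1881 (final 30 pM) and treated with 1:5 serial dilutions (final 100 nM to 10 fM) for 9 days at 37 °C. Viability by CellTiter-Glo luminescence; IC50 from 4-parameter logistic fit of RLU vs concentration.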

EC50 [1] [nM]	IC50 [2] [nM]	Structure (SMILES)
10 to 100	0.1 to 1	CC(=O)N1CCc2c(c(N3CCCc4cc(-c5cnn(C)c5)c(C(F)F)cc43)nn2C2CN(C3CCN(c4ncc(C(=O)NC5C(C)(C)C(Oc6ccc(C#N)c(Cl)c6)C5(C)C)cn4)CC3)C2)C1 (stereo not drawn) [Compound 11, 2-[4-[3-[5-acetyl-3-[7-(difluoromethyl)-6-(1-methylpyrazol-4-yl)-3,4-dihydro-2H-quinolin-1-yl]-6,7-dihydro-4H-pyrazolo[4,3-c]pyridin-1-yl]azetidin-1-yl]-1-piperidyl]-N-[3-(3-chloro-4-cyano-phenoxy)-2,2,4,4-tetramethyl-cyclobutyl]pyrimidine-5-carboxamide]
< 1	1 to 100	CC(=O)N1CCc2c(c(-c3cccc4cc(-c5ccc(COc6ncc(C(=O)NC7C(C)(C)C(Oc8ccc(C#N)c(Cl)c8)C7(C)C)cn6)nc5)ncc34)nn2C2CCOCC2)C1 (stereo not drawn) [Compound 71, 2-[[5-[8-(5-acetyl-1-tetrahydropyran-4-yl-6,7-dihydro-4H-pyrazolo[4,3-c]pyridin-3-yl)-3-isoquinolyl]-2-pyridyl]methoxy]-N-[3-(3-chloro-4-cyano-phenoxy)-2,2,4,4-tetramethyl-cyclobutyl]pyrimidine-5-carboxamide]
< 1	0.1 to 1	CC(=O)N1CCc2c(c(N3CCCc4cc(-c5cnn(C)c5)c(C)cc43)nn2C2CCN(C3CCC4(CC3)CN(c3ncc(C(=O)NC5C(C)(C)C(Oc6ccc(C#N)c(Cl)c6)C5(C)C)cn3)C4)CC2)C1 (stereo not drawn) [Compound 468, 2-[7-[4-[5-acetyl-3-[7-methyl-6-(1-methylpyrazol-4-yl)-3,4-dihydro-2H-quinolin-1-yl]-6,7-dihydro-4H-pyrazolo[4,3-c]pyridin-1-yl]-1-piperidyl]-2-azaspiro[3.5]nonan-2-yl]-N-[3-(3-chloro-4-cyano-phenoxy)-2,2,4,4-tetramethyl-cyclobutyl]pyrimidine-5-carboxamide]
< 1	0.1 to 1	COc1cc(OC2C(C)(C)C(NC(=O)c3ccc(N4CC(OC5CCC(n6nc(N7CCCc8cc(-c9cnn(C)c9)c(C(F)F)cc87)c7c6CCN(C(C)=O)C7)CC5)C4)cc3)C2(C)C)ccc1C#N (stereo not drawn) [Compound 342, 4-[3-[4-[5-acetyl-3-[7-(difluoromethyl)-6-(1-methylpyrazol-4-yl)-3,4-dihydro-2H-quinolin-1-yl]-6,7-dihydro-4H-pyrazolo[4,3-c]pyridin-1-yl]cyclohexoxy]azetidin-1-yl]-N-[3-(4-cyano-3-methoxy-phenoxy)-2,2,4,4-tetramethyl-cyclobutyl]benzamide]

Structure (SMILES)	EC50 [1] [nM]	IC50 [2] [nM]
COC(=O)N1c2ccc3c(nc(Cc4ccccc4)n3[C@@H]3CCC[C@@H](C(=O)N4CCN(c5ncc(C(=O)NC6C(C)(C)C(Oc7ccc(C#N)c(Cl)c7)C6(C)C)cn5)CC4)C3)c2CC[C@@H]1C (stereo partly drawn) [Compound 127, methyl (7S)-2-benzyl-3-[(1R,3R)-3-[4-[5-[[3-(3-chloro-4-cyano-phenoxy)-2,2,4,4-tetramethyl-cyclobutyl]carbamoyl]pyrimidin-2-yl]piperazine-1-carbonyl]cyclohexyl]-7-methyl-8,9-dihydro-7H-imidazo[4,5-f]quinoline-6-carboxylate]	< 1	≤ 0.1
CC(=O)N1CCc2c(c(N3CCCc4ccc(C(F)F)cc43)nn2C2CCN(C(=O)C3CCN(c4ncc(C(=O)NC5C(C)(C)C(Oc6ccc(C#N)c(Cl)c6)C5(C)C)cn4)CC3)CC2)C1 (stereo not drawn) [Compound 122, 2-[4-[4-[5-acetyl-3-[7-(difluoromethyl)-3,4-dihydro-2H-quinolin-1-yl]-6,7-dihydro-4H-pyrazolo[4,3-c]pyridin-1-yl]piperidine-1-carbonyl]-1-piperidyl]-N-[3-(3-chloro-4-cyano-phenoxy)-2,2,4,4-tetramethyl-cyclobutyl]pyrimidine-5-carboxamide]	< 1	≤ 0.1
